Results taken from article PMC8580996, “2-Oxoglutarate derivatives can selectively enhance or inhibit the activity of human oxygenases” (Nature Communications, 2021).
Values joined by “and” are separate entries in the source; they are usually repeats but may differ in a detail not shown here. Identical values can stand only once.

Key:
FIH = FIH (Homo sapiens, UniProt Q9NWT6); experiment: Mechanism of FIH inhibition: 2OG kinetics at variable concentrations of 18 (Ki, Cornish-Bowden plot); format: biochemical; parameters: FIH reaction rate at variable 2OG and compound 18 concentrations (Figure 5a): unit not given here
Procedure: Supplementary Figure 28. Determination of the FIH Kapp for 4-(3-phenylprop-1-yl)-2OG (18) (continues on […]
the following page). […]
(LAA), and 20 μM ammonium iron(II) sulfate hexahydrate (FAS, (NH4)2Fe(SO4)2·6H2O) in buffer (50 mM Tris, 50 mM NaCl, pH 7.5, 20° C). Measurement times were normalized to the first sample injection analyzed after the […]
are shown as the mean of independent triplicates (n = 3; mean ± standard deviation, SD). […]
2OG concentrations, determined in the presence of 0.5 μM 18; (e) hydroxylation rates used for the kinetic analysis; […]

AspH = target: T1, AspH (Homo sapiens, UniProt Q12797); parameters: method as in PMID 34163896; settings: hFX-CP101–119 substrate, 330 μM 2OG or 2OG derivative, t = 15 min; cited from earlier work
T1 construct: the tetratricopeptide repeat domain (His6-AspH315-758), was produced and purified as previously reported; made in house
T1 sequence (Q12797 315-758): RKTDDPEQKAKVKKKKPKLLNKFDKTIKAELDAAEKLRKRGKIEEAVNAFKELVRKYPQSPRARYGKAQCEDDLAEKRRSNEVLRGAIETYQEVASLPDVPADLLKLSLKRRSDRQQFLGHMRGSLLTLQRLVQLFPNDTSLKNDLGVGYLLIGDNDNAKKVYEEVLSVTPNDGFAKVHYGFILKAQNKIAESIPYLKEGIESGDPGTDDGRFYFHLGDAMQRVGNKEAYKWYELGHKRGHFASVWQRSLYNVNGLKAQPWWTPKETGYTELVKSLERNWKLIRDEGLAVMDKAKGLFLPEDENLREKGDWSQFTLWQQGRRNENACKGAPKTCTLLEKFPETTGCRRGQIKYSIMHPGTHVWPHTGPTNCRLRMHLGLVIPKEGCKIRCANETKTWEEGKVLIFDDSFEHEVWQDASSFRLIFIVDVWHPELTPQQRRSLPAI

Chain of FIH (Q9NWT6 whole entry): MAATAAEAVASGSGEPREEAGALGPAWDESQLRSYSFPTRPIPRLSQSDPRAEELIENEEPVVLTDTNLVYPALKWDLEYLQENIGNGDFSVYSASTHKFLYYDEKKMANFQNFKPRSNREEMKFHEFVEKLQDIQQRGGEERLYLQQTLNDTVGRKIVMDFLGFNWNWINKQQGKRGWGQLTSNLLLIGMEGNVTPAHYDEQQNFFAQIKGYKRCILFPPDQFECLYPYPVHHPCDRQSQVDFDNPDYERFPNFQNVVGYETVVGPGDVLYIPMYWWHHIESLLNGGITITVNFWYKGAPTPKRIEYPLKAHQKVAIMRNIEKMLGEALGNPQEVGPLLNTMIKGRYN

O=C(O)C(=O)CC(CCCc1ccccc1)C(=O)O (stereo not shown) [compound 18, 4-(3-phenylpropyl)-2OG]
2OG concentration / rate, Cornish-Bowden plot (Figure 5b) (FIH; 0.5 μM 18, 2 μM 2OG): 738.825 and 619.579 and 831.947
2OG concentration / rate, Cornish-Bowden plot (Figure 5b) (FIH; 0.5 μM 18, 4 μM 2OG): 1161.44 and 956.709 and 1175.78
2OG concentration / rate, Cornish-Bowden plot (Figure 5b) (FIH; 0.5 μM 18, 8 μM 2OG): 1892.15 and 1526.72 and 1620.09
2OG concentration / rate, Cornish-Bowden plot (Figure 5b) (FIH; 0.5 μM 18, 16 μM 2OG): 2827.85 and 3158.93 and 3165.81
2OG concentration / rate, Cornish-Bowden plot (Figure 5b) (FIH; 0.5 μM 18, 32 μM 2OG): 6761.04 and 5757.47 and 6079.03
2OG concentration / rate, Cornish-Bowden plot (Figure 5b) (FIH; 0.5 μM 18, 64 μM 2OG): 11329.4 and 12181.2 and 11500.5
FIH reaction rate at variable 2OG and compound 18 concentrations (Figure 5a) (FIH; 0.5 μM compound 18, 0 μM 2OG): 0
FIH reaction rate at variable 2OG and compound 18 concentrations (Figure 5a) (FIH; 0.5 μM compound 18, 0.5 μM 2OG): 0.000919 and 0.000982 and 0.001057
FIH reaction rate at variable 2OG and compound 18 concentrations (Figure 5a) (FIH; 0.5 μM compound 18, 1 μM 2OG): 0.001502 and 0.002201 and 0.001615
FIH reaction rate at variable 2OG and compound 18 concentrations (Figure 5a) (FIH; 0.5 μM compound 18, 2 μM 2OG): 0.002707 and 0.003228 and 0.002404
FIH reaction rate at variable 2OG and compound 18 concentrations (Figure 5a) (FIH; 0.5 μM compound 18, 4 μM 2OG): 0.003444 and 0.004181 and 0.003402
FIH reaction rate at variable 2OG and compound 18 concentrations (Figure 5a) (FIH; 0.5 μM compound 18, 8 μM 2OG): 0.004228 and 0.00524 and 0.004938
FIH reaction rate at variable 2OG and compound 18 concentrations (Figure 5a) (FIH; 0.5 μM compound 18, 16 μM 2OG): 0.005658 and 0.005065 and 0.005054
FIH reaction rate at variable 2OG and compound 18 concentrations (Figure 5a) (FIH; 0.5 μM compound 18, 32 μM 2OG): 0.004733 and 0.005558 and 0.005264
FIH reaction rate at variable 2OG and compound 18 concentrations (Figure 5a) (FIH; 0.5 μM compound 18, 64 μM 2OG): 0.005649 and 0.005254 and 0.005565
2OG concentration / rate, Cornish-Bowden plot (Figure 5b) (FIH; 1 μM 18, 2 μM 2OG): 1398.6 and 985.222 and 1090.51
2OG concentration / rate, Cornish-Bowden plot (Figure 5b) (FIH; 1 μM 18, 4 μM 2OG): 1161.44 and 1382.65 and 1432.15
2OG concentration / rate, Cornish-Bowden plot (Figure 5b) (FIH; 1 μM 18, 8 μM 2OG): 2089.32 and 1965.12 and 2137.89
2OG concentration / rate, Cornish-Bowden plot (Figure 5b) (FIH; 1 μM 18, 16 μM 2OG): 3148.99 and 3185.35 and 3256
2OG concentration / rate, Cornish-Bowden plot (Figure 5b) (FIH; 1 μM 18, 32 μM 2OG): 5969.04 and 5882.35
2OG concentration / rate, Cornish-Bowden plot (Figure 5b) (FIH; 1 μM 18, 64 μM 2OG): 12176.6 and 10488.4
FIH reaction rate at variable 2OG and compound 18 concentrations (Figure 5a) (FIH; 1.0 μM compound 18, 0 μM 2OG): 0
FIH reaction rate at variable 2OG and compound 18 concentrations (Figure 5a) (FIH; 1.0 μM compound 18, 0.5 μM 2OG): 0.000462 and 0.000537 and 0.000636
FIH reaction rate at variable 2OG and compound 18 concentrations (Figure 5a) (FIH; 1.0 μM compound 18, 1 μM 2OG): 0.000809 and 0.001158 and 0.001225
FIH reaction rate at variable 2OG and compound 18 concentrations (Figure 5a) (FIH; 1.0 μM compound 18, 2 μM 2OG): 0.00143 and 0.00203 and 0.001834
FIH reaction rate at variable 2OG and compound 18 concentrations (Figure 5a) (FIH; 1.0 μM compound 18, 4 μM 2OG): 0.003444 and 0.002893 and 0.002793
FIH reaction rate at variable 2OG and compound 18 concentrations (Figure 5a) (FIH; 1.0 μM compound 18, 8 μM 2OG): 0.003829 and 0.004071 and 0.003742
FIH reaction rate at variable 2OG and compound 18 concentrations (Figure 5a) (FIH; 1.0 μM compound 18, 16 μM 2OG): 0.005081 and 0.005023 and 0.004914
FIH reaction rate at variable 2OG and compound 18 concentrations (Figure 5a) (FIH; 1.0 μM compound 18, 32 μM 2OG): 0.005361 and 0.00544
FIH reaction rate at variable 2OG and compound 18 concentrations (Figure 5a) (FIH; 1.0 μM compound 18, 64 μM 2OG): 0.005256 and 0.006102
2OG concentration / rate, Cornish-Bowden plot (Figure 5b) (FIH; 2 μM 18, 2 μM 2OG): 2902.76 and 2272.73 and 1572.33
2OG concentration / rate, Cornish-Bowden plot (Figure 5b) (FIH; 2 μM 18, 4 μM 2OG): 2503.13 and 2493.77 and 2115.28
2OG concentration / rate, Cornish-Bowden plot (Figure 5b) (FIH; 2 μM 18, 8 μM 2OG): 3164.56 and 2950.94 and 2606.71
2OG concentration / rate, Cornish-Bowden plot (Figure 5b) (FIH; 2 μM 18, 16 μM 2OG): 5053.7 and 4190.68 and 4087.89
2OG concentration / rate, Cornish-Bowden plot (Figure 5b) (FIH; 2 μM 18, 32 μM 2OG): 7228.37 and 7157.24 and 7025.25
2OG concentration / rate, Cornish-Bowden plot (Figure 5b) (FIH; 2 μM 18, 64 μM 2OG): 11617.4 and 13556.5
FIH reaction rate at variable 2OG and compound 18 concentrations (Figure 5a) (FIH; 2.0 μM compound 18, 0 μM 2OG): 0
FIH reaction rate at variable 2OG and compound 18 concentrations (Figure 5a) (FIH; 2.0 μM compound 18, 1 μM 2OG): 0.000474 and 0.000421 and 0.000679
FIH reaction rate at variable 2OG and compound 18 concentrations (Figure 5a) (FIH; 2.0 μM compound 18, 2 μM 2OG): 0.000689 and 0.00088 and 0.001272
FIH reaction rate at variable 2OG and compound 18 concentrations (Figure 5a) (FIH; 2.0 μM compound 18, 4 μM 2OG): 0.001598 and 0.001604 and 0.001891
FIH reaction rate at variable 2OG and compound 18 concentrations (Figure 5a) (FIH; 2.0 μM compound 18, 8 μM 2OG): 0.002528 and 0.002711 and 0.003069
FIH reaction rate at variable 2OG and compound 18 concentrations (Figure 5a) (FIH; 2.0 μM compound 18, 16 μM 2OG): 0.003166 and 0.003818 and 0.003914
FIH reaction rate at variable 2OG and compound 18 concentrations (Figure 5a) (FIH; 2.0 μM compound 18, 32 μM 2OG): 0.004427 and 0.004471 and 0.004555
FIH reaction rate at variable 2OG and compound 18 concentrations (Figure 5a) (FIH; 2.0 μM compound 18, 64 μM 2OG): 0.005509 and 0.004721
2OG concentration / rate, Cornish-Bowden plot (Figure 5b) (FIH; 4 μM 18, 2 μM 2OG): 4319.65 and 4926.11 and 3120.12
2OG concentration / rate, Cornish-Bowden plot (Figure 5b) (FIH; 4 μM 18, 4 μM 2OG): 4866.18 and 5181.35 and 3610.11
2OG concentration / rate, Cornish-Bowden plot (Figure 5b) (FIH; 4 μM 18, 8 μM 2OG): 5025.13 and 6092.92
2OG concentration / rate, Cornish-Bowden plot (Figure 5b) (FIH; 4 μM 18, 16 μM 2OG): 7045.35 and 7289.29 and 6153.85
2OG concentration / rate, Cornish-Bowden plot (Figure 5b) (FIH; 4 μM 18, 32 μM 2OG): 9395.18 and 8886.42 and 8623.01
2OG concentration / rate, Cornish-Bowden plot (Figure 5b) (FIH; 4 μM 18, 64 μM 2OG): 15241.7 and 14522.4 and 14719.4
FIH reaction rate at variable 2OG and compound 18 concentrations (Figure 5a) (FIH; 4.0 μM compound 18, 0 μM 2OG): 0
FIH reaction rate at variable 2OG and compound 18 concentrations (Figure 5a) (FIH; 4.0 μM compound 18, 2 μM 2OG): 0.000463 and 0.000406 and 0.000641
FIH reaction rate at variable 2OG and compound 18 concentrations (Figure 5a) (FIH; 4.0 μM compound 18, 4 μM 2OG): 0.000822 and 0.000772 and 0.001108
FIH reaction rate at variable 2OG and compound 18 concentrations (Figure 5a) (FIH; 4.0 μM compound 18, 8 μM 2OG): 0.001592 and 0.001313 and 0.00107
FIH reaction rate at variable 2OG and compound 18 concentrations (Figure 5a) (FIH; 4.0 μM compound 18, 16 μM 2OG): 0.002271 and 0.002195 and 0.0026
FIH reaction rate at variable 2OG and compound 18 concentrations (Figure 5a) (FIH; 4.0 μM compound 18, 32 μM 2OG): 0.003406 and 0.003601 and 0.003711
FIH reaction rate at variable 2OG and compound 18 concentrations (Figure 5a) (FIH; 4.0 μM compound 18, 64 μM 2OG): 0.004199 and 0.004407 and 0.004348
Ki (FIH; non-linear regression, HIF-1α788–822, 2OG-competitive): ~200 nM
FIH Kmapp for 2OG (FIH; presence of 0.5 μM 18): 2.12 ± 0.20 µM
FIH vmaxapp for 2OG (FIH; presence of 0.5 μM 18): 5.8 ± 0.1 10-3 μM·s-1
FIH Kmapp for 2OG (FIH; presence of 1.0 μM 18): 4.58 ± 0.34 µM
FIH vmaxapp for 2OG (FIH; presence of 1.0 μM 18): 6.2 ± 0.1 10-3 μM·s-1
FIH Kmapp for 2OG (FIH; presence of 2.0 μM 18): 9.62 ± 0.91 µM
FIH vmaxapp for 2OG (FIH; presence of 2.0 μM 18): 5.9 ± 0.2 10-3 μM·s-1
FIH Kmapp for 2OG (FIH; presence of 4.0 μM 18): 25.1 ± 2.5 µM
FIH vmaxapp for 2OG (FIH; presence of 4.0 μM 18): 6.1 ± 0.3 10-3 μM·s-1
AspH activity, %-substrate conversion (AspH): <1%
